Test results published in paper PMC8950173 (Pharmaceuticals, 2022).

Assays:
human recombinant HDAC1 = target: T1, human recombinant HDAC1 (Homo sapiens, UniProt Q13547); assay: Inhibition assay HDAC1 (fluorogenic substrate ZMAL); format: biochemical; settings: 60 min preincubation at 25 °C
T1 construct: purchased BPS Bioscience Inc. 50051
Protocol: In vitro inhibitory activities against HDAC1−3 and HDAC6 were measured as previously published with minor modifications. […] Subsequently, 50 µL trypsin solution (0.4 mg/mL trypsin in buffer: 50 mM Tris−HCl, pH = 8.0, 100 mM NaCl) was added, followed by additional 30 min of incubation at 37 °C. […] All compounds were tested at least twice in duplicates.

Radiochemical stability = format: physicochemical; settings: room temperature, more than two hours
Protocol: Radiochemical stability of [^18F]BA3 was investigated in 0.9% NaCl solution (containing 10% EtOH) and in n-octanol at room temperature for 2 h. Samples were analysed by radio-RP-HPLC (see quality control). The LogD7.4 value of [^18F]BA3 was experimentally determined in n-octanol/phosphate-buffered saline (PBS, pH = 7.4) at room temperature by the shake-flask method as described previously. Briefly, small tracer amounts (~800 kBq) were added to a mixture of 3 mL n-octanol and 3 mL PBS. After shaking for 20 min, the samples were centrifuged (10,000 rpm, 5 min) and 1 mL aliquots of the organic as well as aqueous layer were taken and measured in a gamma counter (1480 WIZARD, Perkin Elmer, Turku, Finland). Another 1 mL aliquot of the organic layer was mixed with 2 mL n-octanol and 3 mL PBS and subjected to the same procedure until constant partition coefficient values had been obtained. The measurement was performed twice in quadruplicate.

[1] = Whole-body biodistribution derived from PET imaging; format: in vivo
Protocol: For the time of the experiments, female CD-1 mice (n = 6; 8–15 weeks; 29–43 g) were kept in a dedicated climatic chamber with free access to water and food under a 12:12 h dark:light cycle at a constant temperature (24 °C). The animals were anaesthetized (Anaesthesia Unit U-410, agntho’s, Lidingö, Sweden) with isoflurane (2.0%, 300 mL/min) delivered in a 60% oxygen/40% air mixture (Gas Blender 100 Series, MCQ instruments, Rome, Italy) and their body temperature maintained at 37 °C with a thermal bed system. For baseline studies [^18F]BA3 was injected into the tail vein (n = 2; 6.0 ± 0.6 MBq in 150 µL isotonic saline; 9.2 ± 0.7 nmol/kg; Am: 21 GBq/μmol, EOS) followed by a dynamic 60 min PET/MR scan (Mediso nanoScan®, Budapest, Hungary). Permeability-glycoprotein efflux transporter studies consisted in pre-treatment via i.v. injection of cyclosporine A (50 mg/kg in NaCl/DMSO/kolliphor, 7:1:2, v/v; n = 2) or of vehicle (NaCl/DMSO/kolliphor, 7:1:2, v/v; n = 2) 30 min prior to [^18F]BA3 (6.0 ± 0.9 MBq; 4.9 ± 0.7 nmol/kg; Am: 32–37 GBq/μmol, EOS). Each PET image was corrected for random coincidences, dead time, scatter and attenuation (AC), based on a whole body (WB) MR scan. The reconstruction parameters for the list mode data were 3D-ordered subset expectation maximization (OSEM), 4 iterations, 6 subsets, energy window: 400–600 keV, coincidence mode: 1–5, ring difference: 81. The mice were positioned prone in a special mouse bed (heated up to 37 °C), with the head fixed to a mouth piece for the anaesthetic gas supply with isoflurane in 40% air and 60% oxygen. The PET data were collected by a continuous WB scan during the entire investigation. Following the 60 min PET scan a T1 weighted WB gradient echo sequence (TR/TE: 20/6.4 ms, NEX: 1, FA: 25, FOV: 64 × 64 mm, Matrix: 128 × 128, STh: 0.5 mm) was performed for AC and anatomical orientation. […]. The respective brain regions were identified using the mouse brain atlas template Ma-Benveniste-Mirrione-FDG. The activity data are expressed as mean SUV of the overall ROI.

[2] = In vivo metabolism (radio-RP-HPLC and radio-MLC of plasma, brain, urine); design: species or system CD-1 mice; settings: 30 min p.i.
Protocol: The radiotracer [^18F]BA3 (~30 MBq in 200 µL isotonic saline) was administered via the tail vein in non-anesthetized female CD-1 mice (n = 2). At 30 min p.i., the animals were anesthetized by isoflurane inhalation and blood was sampled from the retro-orbital plexus. After cervical dislocation, urine was obtained and the brain was isolated. Plasma was obtained by centrifugation of the blood sample (8000× g, 2 min), and the brain was homogenized in ~1 mL distilled water on ice using a glass/PTFE Potter Homogenizer (Potter S Homogenizer, B. Braun Melsungen AG, Melsungen, Germany).
Protein precipitation was performed by addition of an ice-cold MeCN/H2O mixture (9:1, v/v) in a ratio of 4:1 (v/v) of organic solvent to plasma or brain homogenate, respectively. The samples were vortexed for 3 min, equilibrated on ice for 3 min, and centrifuged for 10 min at 10,000 rpm. The precipitates were washed with 100 μL of the solvent mixture and subjected to the same procedure. The combined supernatants were concentrated at 70 °C under argon flow to a final volume of approximately 100 μL and analysed by analytical radio-RP-HPLC with a gradient system (see quality control section). The peak corresponding to the radiotracer in the radio-chromatogram was identified by co-injecting the sample with the reference compound BA3. To determine the percentage of activity in the supernatants compared with total activity, aliquots of each step as well as the precipitates were quantified by an automated gamma counter (1480 WIZARD, Perkin Elmer, Turku, Finland). For plasma and brain samples recoveries of 97% and 95%, respectively, of total activity were obtained.
For the preparation of the MLC samples, 20 µL of mouse plasma was dissolved in 200 µL of an aqueous 200 mM sodium dodecyl sulfate (SDSaq) solution and injected into the MLC system. For brain samples, 400 µL brain homogenate was dissolved in 800 µL 200 mM SDSaq, heated for 5 min at 70 °C and centrifuged for 5 min at 10,000 rpm. The MLC system was built up as earlier described. Separations were performed by using a Reprosil-Pur C18-AQ column (250 × 4.6 mm, 10 µm + 10 mm pre-column) and an eluent mixture of EtOH/100 mM SDSaq/25 mM (NH4)2HPO4 in gradient mode (0–10 min at 100% 100 mM SDSaq, 10–15 min up to 10% EtOH, 15–20 min at 10% EtOH, 20–21 min up to 100% 100 mM SDSaq; 21–30 min at 100% 100 mM SDSaq) at a flow rate of 1.0 mL/min.

[3] = radio-RP-HPLC, individual values of 2 mice

T1 sequence (Q13547 whole entry): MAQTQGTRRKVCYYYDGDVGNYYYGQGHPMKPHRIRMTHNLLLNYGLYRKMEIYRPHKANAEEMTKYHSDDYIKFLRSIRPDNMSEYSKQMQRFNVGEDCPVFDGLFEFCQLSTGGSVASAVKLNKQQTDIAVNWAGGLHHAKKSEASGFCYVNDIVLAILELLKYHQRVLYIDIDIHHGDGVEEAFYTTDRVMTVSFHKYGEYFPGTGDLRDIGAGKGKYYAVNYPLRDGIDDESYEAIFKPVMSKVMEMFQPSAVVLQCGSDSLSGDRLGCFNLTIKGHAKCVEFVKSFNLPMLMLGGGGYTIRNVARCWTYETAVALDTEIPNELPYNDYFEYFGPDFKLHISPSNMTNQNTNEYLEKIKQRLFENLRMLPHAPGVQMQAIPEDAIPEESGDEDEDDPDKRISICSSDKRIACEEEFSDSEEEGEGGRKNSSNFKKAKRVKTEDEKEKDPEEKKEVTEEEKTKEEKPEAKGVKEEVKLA

## CC([18F])C(=O)NCc1ccc(C(=O)Nc2cc(-c3ccsc3)ccc2N)cc1 (stereo not shown) [[^18F]BA3]
Human recombinant HDAC1
  IC50: 4.8 ± 0.6 nM
Radiochemical stability; in n-octanol
  radiochemical purity (stability): > 99%
Radiochemical stability; in saline formulation containing 10% EtOH
  radiochemical purity (stability): > 99%
[1]; blood, 5 min
  activity in blood circulation SUV5 min: 1.47 SUV
[1]; blood, 60 min
  activity in blood circulation SUV60 min: 1.10 SUV
[1]; spleen, kidney, muscle, liver and small intestines, 5 min
  initial uptake SUV5 min: < 4 SUV
[2]; radio-MLC, mean, n = 2
  intact radiotracer, share of total activity in brain: ~24%
  intact radiotracer, share of total activity in plasma: about 6%
[2]; radio-RP-HPLC and radio-MLC
  intact radiotracer in urine: not detected
[2]; [3]
  Brain [%] of activity: 20 / 23
  Plasma [%] of activity: 3 / 7
[2]; radio-RP-HPLC, mean, n = 2
  share of total activity in brain: 21%
  share of total activity in plasma: about 5%
